Results from patent US20210330611A1, “THERAPY FOR NEUROLOGICAL DISEASES/DISORDERS” (priority 2020, published 2021).
Where a name gives a salt, the structure may show the parent alone. Read-outs that look alike come from different tables or passages of the source.

Tests used:
[1] = tested on: fibrin-induced microglia activation; assay: Image-based assay of fibrin-induced microglia activation (HTS and dose response); assay type: cell-based, rat; conditions: for inhibition at 10 µM: Rattus norvegicus, Microglia, read-out: Fibrin % inhibition
[2] = tested on: LPS-induced microglia activation; assay: Image-based assay of LPS-induced microglia activation (HTS and dose response); assay type: cell-based, rat; conditions: for inhibition at 10 µM: Rattus norvegicus, Microglia, read-out: LPS % inhibition
[3] = tested on: fibrin- and LPS-induced microglia activation; assay: cells; assay type: cell-based, rat
primary rat microglia [4] = assay: Cell toxicity (dead cells, size <150 μm2) in LPS assay
primary rat microglia [5] = assay: Cell toxicity (dead cells, size <150 μm2) in coated fibrin (cFib) assay;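 further: share of dead cells sized under 150 µm2 at 10 µM in fibrin-stimulated microglia HTS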
[6] = primary microglia HTS, fibrin stimulation, activation = cell size >800 μm2
[7] = 48 h, primary microglia HTS, LPS stimulation, activation = cell size >800 μm2
[8] = quadrant by fibrin and LPS inhibition in HTS of 1907 compounds
[9] = primary microglia HTS, LPS stimulation, toxicity = cell size <150 μm2
[10] = primary microglia HTS, fibrin stimulation, toxicity = cell size <150 μm2
[11] = primary microglia HTS, 10 μM, fibrin-stimulated, cell size >800 μm^2 as marker of activation
[12] = primary microglia HTS, 10 μM, LPS-stimulated, cell size >800 μm^2 as marker of activation
[13] = HTS of 1907 compounds, quadrant by fibrin and LPS inhibition
[14] = primary microglia HTS, 10 μM, LPS assay, cell size <150 μm^2 as marker of toxicity
[15] = primary microglia HTS, 10 μM, fibrin assay, cell size <150 μm^2 as marker of toxicity
[16] = primary HTS, 10 μM, fibrin-stimulated primary microglia
[17] = primary HTS, 10 μM, LPS-stimulated primary microglia
[18] = primary HTS, 10 μM, LPS assay, dead cells size <150 μm2
[19] = primary HTS, 10 μM, fibrin assay, dead cells size <150 μm2
[20] = primary microglia HTS, fibrin stimulation, increased cell size (>800 μm^2) as marker of activation
[21] = 48 h, primary microglia HTS, LPS stimulation, increased cell size (>800 μm^2) as marker of activation
[22] = primary microglia HTS, LPS stimulation, decreased size (<150 μm^2) as marker of toxicity
[23] = primary microglia HTS, fibrin stimulation, decreased size (<150 μm^2) as marker of toxicity
[24] = primary microglia HTS, LPS stimulation, increased cell size (>800 μm^2) as marker of activation

Row | Compound | inhibition at 10 µM [1, 6] [%] | inhibition at 10 µM [2, 7] [%] | Quadrant (FIG. 5b) [3, 8] | LPS % cell toxicity (primary rat microglia [4]; [9]) [%] | Fibrin % cell toxicity (primary rat microglia [5]; [10]) [%] | LPS % cell toxicity (primary rat microglia [4]; [22]) [%] | Fibrin % cell toxicity (primary rat microglia [5]; [23]) [%] | other results
1 | N=C(N)N [Guanidine] | -32 | -1 | Q4 | 0 | 0 |  |  | 
2 | CN1[C@@H]2CC[C@H]1C[C@@H](OC(=O)c1c[nH]c3ccccc13)C2 [Tropisetron] |  |  |  |  |  |  |  | inhibition at 10 µM [1, 11]: -28%; inhibition at 10 µM [2, 12]: 14%; Quadrant (FIG. 5b) [3, 13]: Q4; LPS % cell toxicity (primary rat microglia [4]; [14]): 0%; Fibrin % cell toxicity (primary rat microglia [5]; [15]): 0%
3 | Nc1nc(N)nc(-c2cc(Cl)ccc2Cl)n1 [Irsogladine Maleate] | -27 | 14 | Q4 | 0 | 1 |  |  | 
4 | CCCCCCCCCCCCCCCC(=O)OC[C@@H](NC(=O)C(Cl)Cl)[C@H](O)c1ccc([N+](=O)[O-])cc1 [Chloramphenicol Palmitate] |  |  |  |  |  |  |  | inhibition at 10 µM [1, 16]: 15%; inhibition at 10 µM [2, 17]: 9%; Quadrant (FIG. 5b) ([3]; primary HTS, 10 μM): Q4; LPS % cell toxicity (primary rat microglia [4]; [18]): 1%; Fibrin % cell toxicity (primary rat microglia [5]; [19]): 1%
5 | CCC(=O)O[C@@H](O[P@](=O)(CCCCc1ccccc1)CC(=O)N1C[C@H](C2CCCCC2)C[C@H]1C(=O)O)C(C)C [Fosinopril] | -52 | -1 | Q4 | 0 | 1 |  |  | 
6 | C=CC1=C(C(=O)O)N2C(=O)[C@@H](NC(=O)/C(=N\OCC(=O)O)c3csc(N)n3)[C@H]2SC1 [Cefixime] |  |  |  |  |  |  |  | inhibition at 10 µM [1, 16]: 0%; inhibition at 10 µM [2, 17]: -8%; Quadrant (FIG. 5b) ([3]; primary HTS, 10 μM): Q4; LPS % cell toxicity (primary rat microglia [4]; [18]): 0%; Fibrin % cell toxicity (primary rat microglia [5]; [19]): 1%
7 | CC(C)(C)NC[C@H](O)COc1cccc2c1CCCC2=O [Levobunolol Hydrochloride] |  |  | Q4 | 0 | 0 |  |  | Fibrin % inhibition [1, 6]: −19%; LPS % inhibition ([2]; primary microglia HTS, LPS stimulation, activation = cell size >800 μm2): 12%
8 | O=C1CCO1 [Beta-propiolactone, Propiolactone] |  |  |  |  |  |  |  | Fibrin % inhibition [1, 16]: −12%; LPS % inhibition [2, 17]: 8%; Quadrant (FIG. 5b) ([3]; primary HTS, 10 μM): Q4; LPS % cell toxicity (primary rat microglia [4]; [18]): 0%; Fibrin % cell toxicity (primary rat microglia [5]; [19]): 1%
9 | CC1COc2c(N3CCN(C)CC3)c(F)cc3c(=O)c(C(=O)O)cn1c23 (stereo not drawn) [Ofloxacin] |  |  | Q4 |  |  | 0 | 1 | inhibition at 10 µM [1, 20]: -13%; inhibition at 10 µM [2, 21]: 16%
10 | CC1(C)O[C@@H]2C[C@H]3[C@@H]4CCC5=CC(=O)C=C[C@]5(C)[C@H]4[C@@H](O)C[C@]3(C)[C@]2(C(=O)CO)O1 [Desonide] |  |  | Q2 |  |  | 5 | 17 | inhibition at 10 µM [1, 20]: 108%; inhibition at 10 µM [2, 21]: 112%
11 | CCN[C@@H]1C[C@H](N)[C@@H](O[C@H]2OC(CN)=CC[C@H]2N)[C@H](O)[C@H]1O[C@H]1OC[C@](C)(O)[C@H](NC)[C@H]1O.CCN[C@@H]1C[C@H](N)[C@@H](O[C@H]2OC(CN)=CC[C@H]2N)[C@H](O)[C@H]1O[C@H]1OC[C@](C)(O)[C@H](NC)[C@H]1O.O=S(=O)(O)O.O=S(=O)(O)O.O=S(=O)(O)O.O=S(=O)(O)O.O=S(=O)(O)O [Netilmicin Sulfate] |  |  | Q4 |  |  | 0 | 1 | Fibrin % inhibition [1, 20]: −6%; LPS % inhibition [2, 24]: 12%
12 | CC(N)CCCC(C)(C)O (stereo not drawn) [Heptaminol Hydrochloride] | -19 | 13 | Q4 | 0 | 1 |  |  | 
13 | CCN[C@H]1CN(CCCOC)S(=O)(=O)c2sc(S(N)(=O)=O)cc21 [Brinzolamide] |  |  |  |  |  |  |  | inhibition at 10 µM [1, 16]: -3%; inhibition at 10 µM [2, 17]: 5%; Quadrant (FIG. 5b) ([3]; primary HTS, 10 μM): Q4; LPS % cell toxicity (primary rat microglia [4]; [18]): 0%; Fibrin % cell toxicity (primary rat microglia [5]; [19]): 0%
14 | CO/N=C1\CN(c2nc3c(cc2F)c(=O)c(C(=O)O)cn3C2CC2)CC1CN (stereo not drawn) [Gemifloxacin] | -34 | 6 | Q4 | 0 | 0 |  |  | 
15 | CC(C)OC(=O)CCC/C=C\C[C@@H]1[C@@H](CC[C@@H](O)CCc2ccccc2)[C@H](O)C[C@@H]1O [Latanoprost] | 10 | 4 | Q4 | 0 | 1 |  |  | 
16 | O=C(NC(=O)c1c(F)cccc1F)Nc1cc(Cl)c(OC(F)(F)C(F)C(F)(F)F)cc1Cl (stereo not drawn) [Lufenuron] |  |  | Q4 |  |  | 0 | 1 | inhibition at 10 µM [1, 20]: 15%; inhibition at 10 µM [2, 21]: 13%
17 | CCN(CC)CCOCCOC(=O)C(CC)(CC)c1ccccc1 [Oxeladin] |  |  | Q4 |  |  | 0 | 1 | inhibition at 10 µM [1, 20]: -27%; inhibition at 10 µM [2, 21]: 6%
18 | c1ccc(CC2=NCCN2)cc1 [Tolazoline, Priscoline] |  |  |  |  |  |  |  | Fibrin % inhibition [1, 11]: −90%; LPS % inhibition [2, 12]: 17%; Quadrant (FIG. 5b) [3, 13]: Q4; LPS % cell toxicity (primary rat microglia [4]; [14]): 0%; Fibrin % cell toxicity (primary rat microglia [5]; [15]): 0%
19 | CCOC(=O)C(C)(C)Oc1ccc(Cl)cc1 [Clofibrate] |  |  |  |  |  |  |  | inhibition at 10 µM [1, 16]: -20%; inhibition at 10 µM [2, 17]: 18%; Quadrant (FIG. 5b) ([3]; primary HTS, 10 μM): Q4; LPS % cell toxicity (primary rat microglia [4]; [18]): 1%; Fibrin % cell toxicity (primary rat microglia [5]; [19]): 0%
20 | COc1ccc(C(=O)c2ccc(C)cc2)c(O)c1 [Mexeneone] |  |  | Q4 |  |  | 0 | 1 | Fibrin % inhibition [1, 20]: −8%; LPS % inhibition [2, 24]: 9%
21 | O=P(O)(O)C(Cl)(Cl)P(=O)(O)O [Clodronate] |  |  |  |  |  |  |  | inhibition at 10 µM [1, 16]: -15%; inhibition at 10 µM [2, 17]: 1%; Quadrant (FIG. 5b) ([3]; primary HTS, 10 μM): Q4; LPS % cell toxicity (primary rat microglia [4]; [18]): 0%; Fibrin % cell toxicity (primary rat microglia [5]; [19]): 1%
22 | Cc1scc2c1N(C(=O)CN1CCN(C)CC1)c1ccccc1NC2=O |  |  |  |  |  |  |  | Fibrin % inhibition [1, 11]: 3%; LPS % inhibition [2, 12]: 14%; Quadrant (FIG. 5b) [3, 13]: Q4; LPS % cell toxicity (primary rat microglia [4]; [14]): 0%; Fibrin % cell toxicity (primary rat microglia [5]; [15]): 1%
23 | CCCc1nc2c(C)cc(-c3nc4ccccc4n3C)cc2n1Cc1ccc(-c2ccccc2C(=O)O)cc1 [Telmisartan] |  |  |  |  |  |  |  | inhibition at 10 µM [1, 11]: -24%; inhibition at 10 µM [2, 12]: -2%; Quadrant (FIG. 5b) [3, 13]: Q4; LPS % cell toxicity (primary rat microglia [4]; [14]): 0%; Fibrin % cell toxicity (primary rat microglia [5]; [15]): 0%
24 | C[N+](C)(C)CC(O)CC(=O)O.[Cl-] (stereo not drawn) |  |  |  |  |  |  |  | Fibrin % inhibition [1, 16]: −23%; LPS % inhibition [2, 17]: 1%; Quadrant (FIG. 5b) ([3]; primary HTS, 10 μM): Q4; LPS % cell toxicity (primary rat microglia [4]; [18]): 0%; Fibrin % cell toxicity (primary rat microglia [5]; [19]): 1%
25 | CCCCCC(=O)O[C@]1(C(C)=O)CC[C@H]2[C@@H]3CCC4=CC(=O)CC[C@]4(C)[C@H]3CC[C@@]21C [Hydroxyprogesterone Caproate] | 22 | 25 | Q4 | 0 | 1 |  |  | 
26 | C[C@@H]1C[C@H]2[C@@H]3CCC4=CC(=O)C=C[C@]4(C)[C@@]3(F)[C@@H](O)C[C@]2(C)[C@H]1C(=O)CO [Desoxymetasone] |  |  | Q2 |  |  | 3 | 3 | Fibrin % inhibition [1, 20]: 108%; LPS % inhibition [2, 24]: 105%
27 | CCN(CC)CCOc1ccc2c(c1)C(=O)c1cc(OCCN(CC)CC)ccc1-2 [Tilorone] |  |  | Q1 |  |  | 1 | 0 | inhibition at 10 µM [1, 20]: -21%; inhibition at 10 µM [2, 21]: 60%
28 | CCOC(=O)Nc1nc2ccccc2[nH]1 [Lobendazole] | -4 | 20 | Q4 | 0 | 0 |  |  | 
29 | CCC(=O)O[C@H](CC(=O)O)C[N+](C)(C)C [Levocarnitine Propionate Hydrochloride] | -16 | 12 | Q4 | 1 | 1 |  |  | 
30 | O=[N+]([O-])c1ccc([As](=O)(O)O)cc1 [Nitarsone] |  |  | Q4 |  |  | 0 | 1 | Fibrin % inhibition [1, 20]: −3%; LPS % inhibition [2, 24]: 19%
